# Experimental data from PMC7504770, “Mechanistic Insights into the Chaperoning of Human Lysosomal-Galactosidase Activity: Highly Functionalized Aminocyclopentanes and C-5a-Substituted Derivatives of 4-epi-Isofagomine” (Molecules, 2020).
# Entries after “also recorded” stand apart in the source; their conditions may differ.
# What was measured:
# [1] = biological target: α-glucosidase from S. cerevisiae (GH13); experiment: Ki determination, S. cerevisiae α-glucosidase; assay type: biochemical; conditions: 37 °C, pH 7.0, substrate pNP α-Glc; read-out: Ki S. cer. (α-Glc) (GH13)
# Procedure: Kinetic studies were performed at 37 °C in an appropriate buffer (specific conditions depicted below). In a typical assay, the enzyme was incubated with different inhibitor concentrations for up to 5 min before initiating the reaction by the addition of substrate. The initial reaction rate was measured by monitoring the increase in absorbance at 400 nm for up to ten minutes using a Cary4000 (Varian, Palo Alto, CA, USA). Ki determinations were performed using at least two different substrate concentrations. For each inhibitor, a range of four to six inhibitor concentrations bracketing the ultimately determined Ki value was used for each substrate concentration. Dixon plots (1/v vs. [I]) were constructed to validate the use of competitive inhibition model. The data were then fit using non-linear regression analysis with Grafit 7.0 [Erithacus Software, UK]. […] S. cerevisiae α-Glucosidase: 50 mM sodium phosphate buffer (pH 7.0).
# [2] = tested on: R201H/S149F mutant lysosomal β-galactosidase; experiment: Chaperoning activity in R201H/S149F cells (Morquio B/GM1-gangliosidosis); assay type: cell-based, human
# Procedure: (§1) Human β-galactosidase and β-hexosaminidase activity measurements were performed in duplicate assays, unless otherwise stated. Fibroblast cells were harvested by trypsinization in 0.9% NaCl containing 0.01% Triton, homogenized by sonication (3 × 10 s, Sonifier Bandelin Sonopuls, Bandelin, Berlin, Germany) and centrifuged at 13,000 rpm for 2 min in a table top centrifuge (Biofuge Pico, Heraeus, Hanau, Germany). Protein amounts were determined according to the method of Lowry.
# (§2) For assessment of β-Gal activity, 20 µL of cell homogenate were mixed with 100 µL of 0.5 mM 4-methylumbelliferyl-β-D-galactopyranoside (Sigma-Aldrich, St. Louis, MO, USA), in 100 mM citrate buffer (pH 4.0) containing 100 mM NaCl and 0.02% NaN3.
# (§3) Human skin fibroblasts were grown in minimal essential medium (MEM) with Earle’s Salts (Sigma Aldrich, St. Louis, MO, USA) containing 10% fetal bovine serum, 400 µM L-glutamine, and 50 µg/mL gentamycin at 37 °C and 5% CO2. All cells used in this study were between the third and nineteenth passages.
# (§4) Fibroblasts were grown to semi-confluency in 6-well plates. Particular chaperone was added to the culture medium at following concentrations: 100–0.02 µmol. Cells were incubated for four additional days at 37 °C. Cells were harvested by scraping and prepared for β-galactosidase and β-hexosaminidase assays as described above.
# [3] = biological target: T1, R201C mutant lysosomal β-galactosidase (Homo sapiens, UniProt P16278, R201C); experiment: Chaperoning activity in R201C patient fibroblasts; assay type: cell-based; conditions: for chaperoning activity with R201C mutant β-galactosidase: R201C cells (juvenile GM1-gangliosidosis), Figure 7; for β-galactosidase activity at higher concentrations: concentrations higher than 10 µM; for β-galactosidase activity at more than 100 µM: concentrations of more than 100 µM; for influence on β-galactosidase activity: incubation of the cells up to 10 µM
# T1 construct: Cell lines from one GM1-Gangliosidosis-patient (R201C) and one WT; endogenous in cells; host or cells: human skin fibroblasts of a GM1-gangliosidosis patient (R201C)
# T1 sequence (P16278 29-677 R201C): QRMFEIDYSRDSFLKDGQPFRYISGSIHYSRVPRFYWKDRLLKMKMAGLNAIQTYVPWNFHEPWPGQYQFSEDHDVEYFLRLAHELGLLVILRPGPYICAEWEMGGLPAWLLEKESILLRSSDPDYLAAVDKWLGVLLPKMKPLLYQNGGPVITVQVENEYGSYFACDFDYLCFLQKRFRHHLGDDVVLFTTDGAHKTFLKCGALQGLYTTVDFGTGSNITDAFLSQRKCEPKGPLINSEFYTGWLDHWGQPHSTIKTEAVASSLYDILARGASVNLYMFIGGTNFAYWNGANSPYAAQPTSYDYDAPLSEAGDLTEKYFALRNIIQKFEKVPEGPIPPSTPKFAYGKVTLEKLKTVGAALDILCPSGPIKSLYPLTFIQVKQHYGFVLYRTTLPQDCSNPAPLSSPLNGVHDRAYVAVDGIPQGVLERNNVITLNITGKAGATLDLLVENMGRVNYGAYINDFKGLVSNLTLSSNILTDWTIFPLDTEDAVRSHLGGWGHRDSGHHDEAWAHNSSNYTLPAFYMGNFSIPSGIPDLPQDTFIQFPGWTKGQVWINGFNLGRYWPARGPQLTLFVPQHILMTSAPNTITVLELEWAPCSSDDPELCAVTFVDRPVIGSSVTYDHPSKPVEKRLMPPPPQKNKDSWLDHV
# Procedure: as §1
# as §2, with “NaN3. After incubation at 37 °C for 30 min, the reaction was stopped by adding 2.5 mL 400 mM glycine/NaOH (pH 10.4).” for “NaN3.”
# Cell lines from one GM1-Gangliosidosis-patient (R201C) and one WT, were exposed to compounds 22, 31, and 37, for evaluation of their chaperone effects.
# as §3
# Potential chaperones were dissolved in DMSO and diluted in 10 mM phosphate buffer (pH 7.0) containing 100 mM NaCl, 0.01% NaN3, and 0.01% Triton for the IC50-measurements and in MEM for the in-vivo tests. The total DMSO concentration in the media was less than 1% and had no effect on β-Gal activity or cell viability.
# as §4
Compound,Ki [1],β-gal activity increase [2],chaperoning activity with R201C mutant β-galactosidase [3],β-galactosidase activity at higher concentrations [3],β-galactosidase activity at more than 100 µM [3],influence on β-galactosidase activity [3]
"CCCCCCCCNC1C=C(CO)C(O)C(O)C1O (stereo not drawn) [Compound 1, N-octyl-epi-valienamine]",> 1000 µM,≥ 10 fold,,,,
CN(C)c1cccc2c(S(=O)(=O)NCCCCC3NCC(O)C(O)C3CO)cccc12 (stereo not drawn) [Compound 11],,9.5 fold,reacted very positively,,,
CN(C)c1cccc2c(S(=O)(=O)NCCCCCC[C@@H]3NC[C@@H](O)[C@@H](O)[C@H]3CO)cccc12 [Compound 14],,,reacted very positively,,,
CCCCCCCCN[C@H]1[C@H](O)[C@@H](O)[C@@H](O)[C@H]1CO [Compound 16],> 1000 µM,,reacted very positively,,,
CN(C)c1cccc2c(S(=O)(=O)NCCCCCCN[C@H]3[C@H](O)[C@@H](O)[C@@H](O)[C@H]3CO)cccc12 [Compound 17],,9 fold,reacted very positively,,,
CN(C)c1cccc2c(S(=O)(=O)NCCCCCC[C@H]3NC[C@@H](O)[C@@H](O)[C@H]3CO)cccc12 [Compound 22],> 1000 µM,,reacted very positively; also recorded: encouraging dose-dependent chaperoning profiles,,,
"CN(C)c1cccc2c(S(=O)(=O)NCCCCCCN[C@H]3C[C@@H](O)[C@@H](O)[C@H]3CO)cccc12 [Compound 31, (1R,2S,3R,4S)-3-Hydroxymethyl-4-(6′-dansylaminohexylamino)cyclopentane-1,2-diol]",> 1000 µM,,distinctly reduced chaperoning activity,decreased enzyme activity,dramatic loss,no notable influence
"CN(C)c1cccc2c(S(=O)(=O)NCCCCCCN[C@H]3[C@H](F)[C@@H](O)[C@@H](O)[C@H]3CO)cccc12 [Compound 37, (1S,2S,3S,4R,5R)-4-(6′-Dansylaminohexyl)amino-3-fluoro-5-hydroxymethylcyclopentane-1,2-diol]",22.5 µM,,only trailed by deoxyfluoro analog 37,decreased enzyme activity,dramatic loss,no notable influence
